The test system of test [1] is H9c2. The test is described as follows: Protection against LPS/hypoxia induced apoptosis in rat H9c2 cells assessed as reduction in necrotic cells at 10 umol/L incubated for 4 hrs under hypoxia condition in presence of 2-(4-(5-oxo-5-((5-sulfamoyl-1,3,4-thiadiazol-2-yl)amino)pentyl)-1H-1,2,3-triazol-1-yl)acetic acid by AnnexinV-FITC/propidium iodide staining based flow cytometry analysis (reference value: 31.02%). Format: functional. The arrangement: scale not given: the % may be the effect or the level left. As to conditions: dose 10 µmol/L, at 10 µM. In general terms: A flow cytometer gives signals particle by particle.

Test [2] deals with H9c2. The test is described as follows: Protection against LPS/hypoxia induced apoptosis in rat H9c2 cells assessed as reduction in red fluorescence in presence of 2-(4-(5-oxo-5-((5-sulfamoyl-1,3,4-thiadiazol-2-yl)amino)pentyl)-1H-1,2,3-triazol-1-yl)acetic acid by confocal microscopy analysis. The format is functional, cell-based.
The test system of test [3] is H9c2. The test is described as follows: Protection against LPS/hypoxia induced apoptosis in rat H9c2 cells assessed as reduction in green fluorescence in presence of 2-(4-(5-oxo-5-((5-sulfamoyl-1,3,4-thiadiazol-2-yl)amino)pentyl)-1H-1,2,3-triazol-1-yl)acetic acid by confocal microscopy analysis. The format is functional, cell-based.
In test [4] the test system is H9c2. The test is described as follows: Anti-inflammatory activity in LPS/hypoxia induced rat H9c2 cells assessed as reduction of TNF-alpha protein expression at 10 uM by Western blot analysis. Format: functional, cell-based.
Test [5] deals with H9c2. The test is described as follows: Anti-inflammatory activity in rat H9c2 cells assessed as downregulation of cytochrome C expression at 10 uM in presence of 2-(4-(5-oxo-5-((5-sulfamoyl-1,3,4-thiadiazol-2-yl)amino)pentyl)-1H-1,2,3-triazol-1-yl)acetic acid by Western blot analysis. Format: functional, cell-based. For orientation: In western blotting, separated proteins are transferred to a membrane and probed.

Test [6] has as its system H9c2. The test is described as follows: Anti-inflammatory activity in rat H9c2 cells assessed as inhibition of endogenous IL-6 protein expression in presence of 2-(4-(5-oxo-5-((5-sulfamoyl-1,3,4-thiadiazol-2-yl)amino)pentyl)-1H-1,2,3-triazol-1-yl)acetic acid by DAPI staining based immunofluorescence analysis. The format is functional, cell-based.
Test [7] concerns H9c2. The test is described as follows: Antiinflammatory activity in LPS/hypoxia induced CA9 knockdown rat H9c2 cells assessed as decrease in TNF-alpha protein level at 10 uM by Western blot analysis. Format: functional, cell-based.
In test [8] the test system is H9c2. The test is described as follows: Reversal of LPS/hypoxia induced mitochondrial membrane potential loss in rat H9c2 cells in presence of 2-(4-(5-oxo-5-((5-sulfamoyl-1,3,4-thiadiazol-2-yl)amino)pentyl)-1H-1,2,3-triazol-1-yl)acetic acid by JC-1 dye based flow cytometry analysis. The format is functional, cell-based.
The subject of test [9] is H9c2. The test is described as follows: Reversal of ATP level in LPS/hypoxia induced rat H9c2 cells in presence of 2-(4-(5-oxo-5-((5-sulfamoyl-1,3,4-thiadiazol-2-yl)amino)pentyl)-1H-1,2,3-triazol-1-yl)acetic acid by multimode plate reader analysis (reference value: 21.37 nmol/mg). The format is functional.
The subject of test [10] is H9c2. The test is described as follows: Inhibition of intracellular ROS level in LPS/hypoxia induced rat H9c2 cells in presence of 2-(4-(5-oxo-5-((5-sulfamoyl-1,3,4-thiadiazol-2-yl)amino)pentyl)-1H-1,2,3-triazol-1-yl)acetic acid by DCFH-DA probe based fluorescence confocal microscopy analysis. Format: functional, cell-based.
Test [11] relates to Rattus norvegicus. The test is described as follows: Antiinflammatory activity against LPS/talc powder induced pericarditic Wistar rat assessed as reduction in torsion T wave inversion at 20 mg/kg, ip pretreated for 2 hrs followed by LPS/tal powder stimulation measured after 48 hrs in presence of 2-(4-(5-oxo-5-((5-sulfamoyl-1,3,4-thiadiazol-2-yl)amino)pentyl)-1H-1,2,3-triazol-1-yl)acetic acid by ECG analysis. Format: functional, organism-based. Particulars: time 50.0 hrs.

Test [12] has as its system Rattus norvegicus. The test is described as follows: Antiinflammatory activity against LPS/talc powder induced pericarditic Wistar rat assessed as elimination of pericardial effusion at 20 mg/kg, ip pretreated for 2 hrs followed by LPS/tal powder stimulation measured after 48 hrs in presence of 2-(4-(5-oxo-5-((5-sulfamoyl-1,3,4-thiadiazol-2-yl)amino)pentyl)-1H-1,2,3-triazol-1-yl)acetic acid. The format is functional, organism-based. Particulars: time 50.0 hrs.

The source made the active and inactive calls. No cut-off for these calls is given here.

Regarding `COc1ccc2c(c1)c(CC(=O)O)c(C)n2C(=O)c1ccc(Cl)cc1` [INDOMETHACIN], the Activity worked out at 9.61% in test [1] and 47.52 nmol/mg in test [9]. Also, the outcome in [2], in test [3], in test [4], in [5], in test [6] and in [7] was Active. Moreover, the outcome in test [8], in test [11] and in test [12] was Active. Moreover, the inhibition entry in [10] is “Active”.

Values taken from ChEMBL document CHEMBL5104193, “Hypoxia-Activated Prodrugs with Dual COX-2/CA Inhibitory Effects on Attenuating Cardiac Inflammation under Hypoxia” (J Med Chem, 2022).
